Measured values as given in US11690810B2, “Combination treatment of bacterial infection” (The Chinese University of Hong Kong, priority 2018, dated 2023).
Read-outs that look alike come from different tables or passages of the source.

How the values were obtained:
Assay in all cases: MIC and checkerboard (FIC) assay
[1] = system: S. aureus SA-RN4220-pUL5054 (RN4220); conditions: Staphylococcus aureus
MRSA SA-ST239 = conditions: for MIC: Staphylococcus aureus, MRSA; for FIC / MIC combine: ST239
CA-MRSA strain ST30 = assay type: cell-based, Staphylococcus aureus; conditions: Staphylococcus aureus, MRSA
[2] = system: S. aureus SA-APH2″-AAC6′ (APH2), resistant to gentamicin; conditions: for MIC: Staphylococcus aureus
[3] = system: S. aureus SA-APH3′ (APH3), resistant to kanamycin; conditions: Staphylococcus aureus, read-out: Minimum inhibitory concentration to compound (MIC)
[4] = system: S. aureus SA-1199B (NorA efflux pump overexpressed); conditions: Staphylococcus aureus, read-out: Minimum inhibitory concentration to compound (MIC), 1199B′; Table 8
[5] = system: S. aureus SA-ANT4′ (ANT4), resistant to fusidic acid; conditions: Staphylococcus aureus, read-out: Minimum inhibitory concentration to compound (MIC)
HA MRSA W231 = system: HA MRSA W231
HA MRSA W233 = system: HA MRSA W233
HA MRSA W238 = system: HA MRSA W238
[6] = read-out: Activity (MIC, μg/ml)
[7] = read-out: Minimum inhibitory concentration to compound (MIC)
[8] = ST30, Table 8, read-out: Minimum inhibitory concentration to compound (MIC)
[9] = ST30, read-out: Activity (MIC, μg/ml)
[10] = APH2″-AAC6′, ECG with WQD-169 (Kuraridin)

Compound	MIC [1, 6] [µg/mL]	MIC (MRSA SA-ST239; [6]) [µg/mL]	MIC (CA-MRSA strain ST30; [6]) [µg/mL]	MIC [2, 7] [µg/mL]	MIC [3] [µg/mL]	MIC [1, 7] [µg/mL]	MIC [4] [µg/mL]	MIC (MRSA SA-ST239; read-out: MIC alone) [µg/mL]	MIC (CA-MRSA strain ST30; [8]) [µg/mL]	MIC (CA-MRSA strain ST30; [9]) [µg/mL]	MIC [5] [µg/mL]	further results
C=C(C)C(CC=C(C)C)Cc1c(OC)cc(OC)c(C(=O)/C=C/c2ccc(OCc3ccccc3)cc2OCc2ccccc2)c1OC (stereo not shown) [WQD-8]	> 256	> 256	> 256									
C=C(C)C(CC=C(C)C)Cc1c(OC)cc(OC)c(C(=O)/C=C/c2ccccc2O)c1OC (stereo not shown) [WQD-98]	> 256	> 256	> 256									
C=C(C)C(CC=C(C)C)Cc1c(OC)cc(OC)c(C(=O)/C=C/c2ccc(O)cc2)c1OC (stereo not shown) [WQD-101]	> 256	> 256	> 256									
C=C(C)C(CC=C(C)C)Cc1c(O)cc(OC)c(C(=O)/C=C/c2ccccc2O)c1O (stereo not shown) [WQD-165]		4		4	4	8	8	4	32	32	8	FIC ([2]; APH2″-AAC6′, ECG with WQD-165): 1; MIC combine ([2]; APH2″-AAC6′, ECG with WQD-165): 4 µg/mL; MIC ([2]; read-out: MIC alone): 4 µg/mL; FIC (MRSA SA-ST239; ECG with WQD-165): 1; MIC combine (MRSA SA-ST239; ECG with WQD-165): 4 µg/mL
C=C(C)C(CC=C(C)C)Cc1c(O)cc(OC)c(C(=O)/C=C/c2ccc(O)cc2O)c1O (stereo not shown) [WQD-169, (E)-1-(2,4-dihydroxy-6-methoxy-3-(5-methyl-2-(prop-1-en-2-yl)hex-4-en-1-yl)phenyl)-3-(2,4-dihydroxyphenyl)prop-2-en-1-one]		8		8	8	8	8	8	8	8	8	FIC [2, 10]: 0.25; MIC combine [2, 10]: 2 µg/mL; MIC alone ([2]; Strain APH2″-AAC6′, Table 9): 8 µg/mL; FIC (MRSA SA-ST239; ECG with WQD-169 (Kuraridin)): 0.5; MIC combine (MRSA SA-ST239; ECG with WQD-169 (Kuraridin)): 4 µg/mL
C=C(C)C(CC=C(C)C)Cc1c(O)cc(OC)c(C(=O)/C=C/c2ccc(O)cc2)c1O (stereo not shown) [WQD-175]		4		4	4	8	8	4	16	16	8	FIC ([2]; APH2″-AAC6′, ECG with WQD-175): 1; MIC combine ([2]; APH2″-AAC6′, ECG with WQD-175): 4 µg/mL; MIC ([2]; read-out: MIC alone): 4 µg/mL; FIC (MRSA SA-ST239; ECG with WQD-175): 1; MIC combine (MRSA SA-ST239; ECG with WQD-175): 4 µg/mL
gentamicin [reference compound]												MIC alone (HA MRSA W231; W231 (gentamicin resistant)): 64 µg/mL; FIC (HA MRSA W231; W231, ECG+Kur+Gen): 0.015; MIC combine (HA MRSA W231; W231, ECG+Kur+Gen): 1 µg/mL; MIC alone ([2]; APH2 (gentamicin resistant)): > 512 µg/mL; MIC alone ([2]; APH2 (gentamicin resistant), listed as Gen): 512 µg/mL; FIC ([2]; APH2, ECG+Kur+Gen): 0.0312; MIC combine ([2]; APH2, ECG+Kur+Gen): 16 µg/mL; MIC alone (HA MRSA W233; W233 (gentamicin resistant)): 512 µg/mL; FIC (HA MRSA W233; W233, ECG+Kur+Gen): 0.03; MIC combine (HA MRSA W233; W233, ECG+Kur+Gen): 16 µg/mL; MIC alone (HA MRSA W238; W238 (gentamicin resistant)): 512 µg/mL; FIC (HA MRSA W238; W238, ECG+Kur+Gen): 0.03; MIC combine (HA MRSA W238; W238, ECG+Kur+Gen): 16 µg/mL
